Consider three compounds from patent US20230240964A1, “SKIN-FIRMING COSMETIC COMPOSITIONS” (Elastintech, Inc., priority 2021, published 2023).

Structures are written as SMILES.

The conditions of data set [1]: "at levels of up to 10%"; cited from earlier work.
In data set [2] the test system is human cells. The settings on record: human cells in vitro; cited from earlier work.
Data set [3] deals with skin of a subject's left arm (elastic fibers). Briefly: Histology of elastin (VVG stained) punch biopsy, treated vs untreated skin. The data set is classed as in vivo, human. The note with it: 25% dimethyl isosorbide solution, topical, 24 days, vs untreated skin of same subject. Here is the method: The skin of a subject's left arm was treated with a 25% dimethyl isosorbide solution of glucosyl pentagallate for 24 days.

Data set [4] deals with skin of a subject's left arm. The experiment in a line: Histology of polyphenol-stained (ferric chloride) punch biopsy, treated vs untreated skin. The data set is classed as in vivo, human. The note with it: 25% dimethyl isosorbide solution, topical, 24 days, vs untreated skin of same subject. The method, then: The skin of a subject's left arm 2 cm^2 patch (upper under arm above elbow) was treated with a 25% dimethyl isosorbide solution of glucosyl pentagallate for 24 days. Biopsy samples of the treated skin and a similar sample of untreated skin from the same subject's right were then taken, sectioned, and stained for polyphenol (Ferric Chloride stain) and imaged with a light microscope.

For `NCCCC(=O)O` [GABA, γ-aminobutyric acid], the “improvement of skin elasticity” value in data set [1] is “up to 10%”.
For `CC1=NC(C(=O)O)CCN1` (stereo not shown) [Ectoin, 1,4,5,6-tetrahydro-2-methyl-4-pyrimidinecarboxylic acid], the “cell damage from UV and visible light” value in data set [2] was “prevent cell damage from UV and visible light”.
Consider `O=C(OC[C@H]1O[C@@H](OC(=O)c2cc(O)c(O)c(O)c2)[C@H](OC(=O)c2cc(O)c(O)c(O)c2)[C@@H](OC(=O)c2cc(O)c(O)c(O)c2)[C@@H]1OC(=O)c1cc(O)c(O)c(O)c1)c1cc(O)c(O)c(O)c1` [glucosyl pentagallate], for which the “VVG staining of elastic fibers (levels of elastin fibers)” value in data set [3] was “significant black staining”. The “polyphenol (ferric chloride) staining of the dermis, showing glucosyl pentagallate in the dermis” value in data set [4] is on record as “more black staining in the dermis”.
